Experiment [1] deals with lethally irradiated recipient C57Bl/6 (CD45.2+) mice. Put plainly: Homing assay (CD45.1+ donor cells in bone marrow of CD45.2+ recipients, FACS, Example 6). The format is in vivo. On the procedure:
The lineage-negative HSPCs were isolated from whole bone marrow cells of donor mice B6.SJL-PtrcAPep3B/Boyl (CD45.1+) using MACS micro beads (see above). The cells were in vitro treated with 10 μM Treprostinil and 30 μM forskolin or vehicle control for 1 h at 37° C. After washing, 0.2×10^6 lineage-negative CD 45.1^+ cells were injected in to the lethally irradiated (10 Gy) recipient C57Bl/6 (CD45.2^+) mice. Recipient mice were also treated in vivo with either Treprostinil (0.15 mg kg 8 h^−1), vildagliptin (10 mg kg^−1) or with the combination of both drugs subcutaneously. Control mice were injected with the same volume of vehicle. The whole bone marrow cells were isolated from recipient mice 16 h after transplantation. After lysis of red blood cells, the cells were stained for CD45.1 and CD45.2 markers. The proportion of CD45.1^+ and CD45.2^+ cells in the bone marrow was determined by flow cytometry.
Given that DPP-IV inhibitors may be a suitable combination partner for Treprostinil, we explored whether the DPP-IV inhibitor vildagliptin enhanced the action of Treprostinil. This was first tested in an approach, which measured the ability of injected HSPCs to home into the bone marrow: HSPCs harvested from the bone marrow of CD 45.1+ donor mice were injected into isogenic CD45.2 recipients. The animals were sacrificed after 16 h and the amount of CD45.1+ cells, which were retrieved from their bone marrows was quantified by FACS.
The recipient mice were then divided in 7 groups. […] Mice allocated to group 3 received only in vitro-treated cells, those in group 4 were subjected—in addition—to in vivo Treprostinil (Trep, 0.15 mg kg^−1 8 h^−1). Mice assigned to group 5 were administered a combined in vivo treatment with Treprostinil (0.15 mg kg−1 8 h−1) and AMD3100 (3.3 mg kg^−1 8 h^−1). Mice in group 5 received in vivo both Treprostinil (0.15 mg kg^−1 8 h^−1) and vildagliptin (10 mg kg^−1/d), and finally mice in group 6 were subjected to in vivo vildagliptin. The ability of CD45.1+cells to home into the bone marrow was assessed after 16 h by analysing the bone marrow of the recipients by FACS. Data are as means±SEM (n=3). Statistical comparisons were done by ANOVA followed by Tukey's multiple comparison.

Experiment [2] concerns murine haematopoetic progenitor cells. In words: In vitro migration assay (Transwell, towards SDF-1/CXCL12), murine cells. The class given is cell-based. The note with it: 100 ng/ml murine SDF-1, 4 h; for SDF-1/CXCL12-induced migration of Treprostinil+forskolin-stimulated cells: 10 μM AMD3100.
Protocol: Murine haematopoetic progenitor cells were pretreated in vitro with the combination of 10 μM Treprostinil (Trep) and 30 μM forskolin (Fsk) (Sigma Aldrich, Vienna, Austria) or vehicle for 1 h at 37° C. in growth factor containing stem cell medium [(StemSpan™ (SFEM) (Stemcell technologies, USA) (50 ng/mL murine stem cell factor (SCF), 50 ng/mL fms-like tyrosine kinase-3 ligand (Flt3), 50 ng/mL interleukin 11 (IL11) and 150 ng/mL murine interleukin 3 (mIL3)] purchased from PeproTech (London, United Kingdom)). Thereafter cells were washed and resuspended at 2×10^6 cells/mL in medium.
The cell suspension (0.1 mL containing 2×10^5 cells) was added to the upper chamber of Transwell™ dishes (5 μm pore diameter). The bottom chamber was followed with medium or medium containing 100 ng/ml murine stromal derived factor-1 (SDF-1=CXCL12). Cells were allowed to migrate for 4 h at 37° C. Subsequently, the number of cells recovered from the lower chamber was determined by a cell counter. The number of migrated cells was expressed as percentage of total cells added to the upper chamber.
Hematopoietic stem and progenitor cells were preincubated with Treprostinil (10 μM; T) and forskolin (30 μM; F) for 1 h at 37° C., washed and resuspended at a cell density of 2×10^6 cells/mL. The cell suspension (2×10^5 cells in 0.1 mL) was added to the upper chamber the Transwell™ dish, which contained medium with and without 10 ΞM CXCR4 antagonist AMD3100 (10 μM). The medium in the lower chamber contained 100 ng/ml murine SDF-1. The incubation lasted for 4 h at 37° C.; thereafter cells recovered in the lower chamber were counted as outlined in the legend to FIG. 1. Data shown are means±SEM from three independent experiments carried out in triplicate. Statistically significant differences were assessed by one way ANOVA followed by Dunnett's multiple comparisons (***, p<0.001).
For experiment [3], the system named is lethally irradiated recipient BALB/c mice. In words: Bone marrow transplantation (survival of recipient mice, Example 6). The class given is in vivo. As for the experimental part:
These were subsequently divided in two groups. Mice allocated to group 1 (n=10) were further subjected to in vivo treatment with Treprostinil (0.15 mg kg^−1 8 h^−1) whereas mice in group 2 (n=10) received both Treprostinil (0.15 mg kg^−1 8 h^−1) and AMD3100 (3.3 mg kg^−1 8 h^−1) by subcutaneous injection every 8 h for 10 days.
Isogenic recipient mice (C57BL/6 or BALB/c) were subjected to lethal irradiation. […] Lin^− (Sca1^+ and c-Kit^+) HSPCs cells were prepared as outlined above and were pretreated ex vivo in the absence and presence of the combination of 10 μM Treprostinil+30 μM forskolin (FSK) for 1 h at 37° C. Thereafter, the cells (1-5*10^5/mouse) were injected via the tail vein. White blood cell counts were determined by FACS, blood samples were collected every 3 to 5 days starting on day 9 (where blood cell count was ˜1 G/L. In some instances, mice (25-30 g) were also treated with (i) Treprostinil (0.15 mg kg 8 h^−1) and vildagliptin (10 mg kg−^1 12 h^−1) or with the combination of both administered subcutaneously every 8 h for 10 days.
If this was the case, the action of vildagliptin ought to be blunted by simultaneous administration of AMD3100/plerixafor. An experiment was done with seven groups of recipient BALB/c mice (5/group). Several of these groups were internal controls, which were included to verify that earlier findings were recapitulated. […] It is stressed that all conditions were tested in parallel, thus a comparison is legitimate.
Murine HPSCs isolated from donor BALB/c mice were treated in vitro with 10 μM Treprostinil and 30 μM forskolin or vehicle (solid line) for 1 h at 37° C. After washing, 2×10^5 cells were injected into lethally irradiated (10 Gy) recipient BALB/c mice. […] Another group of mice (dotted lines/triangles; n=20) received HSPCs pretreated with 10 μM Treprostinil and 30 μM forskolin, and were also treated in vivo with Treprostinil (0.15 mg kg−1 8 h−1). The next group of mice (dotted lines/squares; n=20) again received in vitro HSPCs pretreated with forskolin+Treprostinil and were further treated in vivo with both Treprostinil (0.15 mg kg^−1 8 h^−1) and vildagliptin (10 mg/kg/24 h). Finally, a group of mice (dashed lines/circles; n=20) received in vitro HSPCs pretreated with forskolin+Treprostinil and were treated in vivo with vildagliptin (10 mg kg−1 per day). In vivo treatment was done by subcutaneous injections, it was initiated directly after transplantation and continued for 10 days.

Experiment [4] has the same test system. Put plainly: In vivo engraftment assay (survival, Example 5). The settings on record: 0.2×10^6 pretreated cells, 10/group. On the procedure: Haematopoetic progenitor cells isolated from bone marrow of donor mice (BALB/c) as outlined in the legend to FIG. 4. The cells were treated in vitro with 10 μM Treprostinil and 30 μM forskolin or vehicle for 1 h at 37° C. After washing, 0.2×10^6 lineage-negative haematopoetic progenitor cells were injected via the tail vein into lethally irradiated (9 Gy) recipient BALB/c mice (10/group). If not pretreated in vitro with the combination of Treprostinil and forskolin, this number of haematopoetic progenitor cells is too low to rescue the recipient animals. Accordingly, the group of mice, which received cells that had not been pretreated, died within the first week (black line, CTRL). The limiting number of haematopoetic stem cells sufficed to rescue 50% of the mice, which had received pretreated cells and were then treated with Treprostinil (3 μg/8 h s.c. for 10 days; red curve labeled in vitro pretreated cells+in vivo treatment of recipient mice with Treprostinil). […] In contrast, mice, which received the combination of Treprostinil (3 μg/8 h) and vildagliptin (10 mg/kg/24 h) had the worst outcome of all recipient mice that had received pretreated cells: only 2 out of ten mice survived (grey line labeled in vitro pretreated cells+in vivo treatment of recipient mice with the combination of Treprostinil and vildagliptin). […]

Experiment [5] has the same test system. Put plainly: In vivo homing assay (colony formation from recipient bone marrow, Example 4).
Experiment [6] relates to human haematopoetic CD34+ stem and progenitor cells. In words: [3H]cAMP accumulation assay. The format is cell-based. The settings on record: for cAMP response after pertussis toxin pretreatment: pertussis toxin 16 h, + 30 μM forskolin. As for the experimental part: Human haematopoetic CD34+ stem and progenitor cells (HSPCs, 4*10^5/mL) were first preincubated for 16 h in the absence presence of 100 ng/ml pertussis toxin (Sigma Aldrich) in X-VIVO15 medium supplemented with growth factors followed by metabolic labelling of the adenine nucleotide pool by an additional 4 h incubation period in [^3H]adenine (Perkin Elmer, 1 μCi/mL) in the X-VIVO15 medium supplemented with growth factors and 10 μg/mL adenosine deaminase (Roche). Thereafter, the cells were challenged with 1 or 10 μM Treprostinil, 1 or 10 μM dimethyl-PGE2 (dmPGE2), forskolin (30 μM) or the combination of forskolin and prostanoids for 30 min. The cells were then pelleted (5 min at 100 g), the medium was removed and the pellet was lysed in ice-cold 2.5% perchloric acid (0.9 mL) containing 0.1 mM cAMP, held on ice for 1 h and neutralized with 4.2 M KOH (0.1 mL). ATP and cAMP were separated by sequential chromatography on columns containing Dowex AG50-X8 and neutral alumina (3).
After metabolic labelling with [3H]adenine, human HSPCs were stimulated with Treprostinil (Trep, 10 μM), dmPGE2 (10 μM) or forskolin (Fsk, 30 μM), the combination of Treprostinil (10 μM) or of dmPGE2 (10 μM) with forskolin (30 μM) as outlined under Materials and Methods. Where indicated HSPCs had been pretreated with pertussis toxin (PTX) for 16 h prior to stimulation. Data are from three independent experiments carried out in triplicate, error bars indicate s.e.m. […] This difference was abolished by pertussis toxin pretreatment (ns, not significant).

The next experiment has as its target EP2 receptors (Homo sapiens, UniProt P43116). The settings on record: read-out: Kd for activation of isolated EP2 receptors; cited from earlier work.
The mark [7] stands for this setting: pretreated HSPCs, recipients given Treprostinil in vivo plus the named drug (AMD3100 3.3 mg kg-1 8 h-1 or vildagliptin 10 mg kg-1/d).
The mark [8] stands for this setting: seven groups, 5/group, all received 2*10^5 Treprostinil+forskolin-pretreated HSPCs, in vivo treatment as named.
[9] abbreviates: Treprostinil+forskolin-pretreated HSPCs, recipients given one drug in vivo (Treprostinil 0.15 mg kg-1 8 h-1 or vildagliptin 10 mg kg-1/d), 16 h.
Setting [10] is: Treprostinil+forskolin-treated cells, recipients treated in vivo (Treprostinil 3 μg/8 h, vildagliptin 10 mg/kg/24 h).
The mark [11] stands for this setting: untreated cells, recipients treated in vivo (Treprostinil 3 μg/8 h, vildagliptin 10 mg/kg/24 h) from 24 h before transplantation.
[12] abbreviates: 2*10^5 Treprostinil+forskolin-pretreated HSPCs, in vivo s.c. for 10 days (Treprostinil 0.15 mg kg-1 8 h-1 or vildagliptin 10 mg kg-1 per day), n=20.

Usually Kd stands for a measure of binding affinity in units of concentration.

Chain of EP2 receptors (P43116 whole entry): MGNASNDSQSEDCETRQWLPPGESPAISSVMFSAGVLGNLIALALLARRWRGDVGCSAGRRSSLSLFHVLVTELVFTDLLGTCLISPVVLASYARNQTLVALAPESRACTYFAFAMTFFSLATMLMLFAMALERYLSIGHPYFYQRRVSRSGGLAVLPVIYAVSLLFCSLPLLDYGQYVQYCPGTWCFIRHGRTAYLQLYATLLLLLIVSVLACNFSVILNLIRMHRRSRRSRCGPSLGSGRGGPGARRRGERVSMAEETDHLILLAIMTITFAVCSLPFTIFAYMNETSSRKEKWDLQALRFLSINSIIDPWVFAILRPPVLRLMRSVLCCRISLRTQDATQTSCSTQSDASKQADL

For the molecule `c1cc(CN2CCCNCCNCCCNCC2)ccc1CN1CCCNCCNCCCNCC1` [AMD3100], in experiment [1] (setting [7]), the “homing of CD45.1+ cells into bone marrow” value is “abolished”. Also, the results for the “SDF-1/CXCL12-induced migration of Treprostinil+forskolin-stimulated cells” value in experiment [2] and in experiment [2] (listed as plerixafor/AMD3100) were “inhibits the SDF-1/CXCL12-induced migration” and “blocked”, respectively. Also, the “survival of recipient mice” value in experiment [3] (pretreated HSPCs, AMD3100 3.3 mg kg-1 8 h-1 concomitant with Treprostinil 0.15 mg kg-1 8 h-1 s.c. 10 days, n=10) was “all recipient mice eventually succumbed to bone marrow failure”; in experiment [3] (setting [8]), “Enhances Survival”.

As to `CCCCC[C@H](O)CC[C@@H]1[C@H]2Cc3cccc(OCC(=O)[O-])c3C[C@H]2C[C@H]1O.[Na+]` [Treprostinil, (1R,2R,3aS,9aS)-[[2,3,3a,4,9,9a-hexahydro-2-hydroxy-1-[(3S)-3-hydroxyoctyl]-1H-benz[f]inden-5-yl]oxy]acetic acid monosodium salt], in experiment [1] (setting [9]), the “homing of CD45.1+ cells into bone marrow” value is given as “increased their homing into the bone marrow”. Moreover, in experiment [4] (in vivo Treprostinil 3 μg/8 h s.c. for 10 days), the mice rescued is recorded as 50%. Further, the “homing into bone marrow (colonies)” value in experiment [5] (setting [10]) is recorded as “promoted homing”; in experiment [5] (setting [11]), “did not promote homing”. In addition, the “survival of recipient mice” value in experiment [3] (setting [12]) was 60%. Also, the “shape of in vivo dose-response-curve for bone marrow engraftment” value in experiment [3] (noted previously, higher doses less beneficial than standard dose) is given as “bell-shaped”. Also, in experiment [6], the “cAMP in haematopoetic progenitor cells” value is “stimulates cAMP”. The “cAMP accumulation, efficacy compared” value in experiment [6] (10 μM, in the presence of 30 μM forskolin, 30 min) was “more efficacious than 10 μM dmPGE2”; in experiment [6] (absence or presence of 30 μM forskolin), “significantly more efficacious than dmPGE2”. Moreover, the “span of concentration-response curve (cAMP)” value in experiment [6] (human haematopoetic stem and progenitor cells) is “more than two orders of magnitude between 10 and 90% of the response”. In experiment [6], the “cAMP response after pertussis toxin pretreatment” value is “no significant difference”.

In the case of `CCCCC(C)(C)[C@H](O)/C=C/[C@H]1[C@H](O)CC(=O)[C@@H]1C/C=C\CCCC(=O)O` [dmPGE2, 16,16-dimethyl PGE2], the Kd at EP2 receptors is around 1 nM. Also, the “cAMP response after pertussis toxin pretreatment” value in experiment [6] was “increased the response to dmPGE2”.

With `N#C[C@@H]1CCCN1C(=O)CNC12CC3CC(CC(O)(C3)C1)C2` [vildagliptin], the “homing of CD45.1+ cells into bone marrow” value in experiment [1] (setting [9]) is recorded as “most pronounced increase in homing”; in experiment [1] (setting [7]), “abrigated the homing effect of Treprostinil”; in experiment [1] (untreated HSPCs, recipients given vildagliptin 10 mg kg-1/d in vivo) it was “did not enhance homing”. The mice survived in experiment [4] (in vivo s.c. for 10 days (vildagliptin 10 mg/24 h; combination Treprostinil 3 μg/8 h + vildagliptin 10 mg/kg/24 h)) is given as 10 out of 10. For the same molecule, the “homing into bone marrow (colonies)” value was “promoted homing” in experiment [5] (setting [10]) and “did not promote homing” in experiment [5] (setting [11]). Further, the “SDF-1/CXCL12-induced migration of Treprostinil+forskolin-preincubated cells” value in experiment [2] (30 nM vildagliptin) is on record as “enhances the SDF-1/CXCL12-induced migration”. For the same molecule, the “survival of recipient mice” value in experiment [3] (setting [12]) was 100%; in experiment [3] (setting [8]), “fared best”.
